# Experimental data published in PubChem BioAssay AID256 (DTP/NCI, 2004).
# “And” between values parts separate entries of the source, which are not always exact repeats. Identical values can stand only once. Toxic doses and inconclusive results are not listed.
# System: CD2F1 mice, L1210 leukemia ip, survival T/C
# Experiment: NCI In Vivo Anticancer Drug Screen. Data for tumor model L1210 Leukemia (intraperitoneal) in CD2F1 (CDF1) mice
# Details: higher = longer survival
# How it was run: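 Transplantable tumor in mice; compound-treated vs vehicle-treated groups. Read-out = treated/control ratio of the measured endpoint.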
# [1] = endpoint: mean survival time, dose: 100.0 mg/kg/injection, schedule: Q01DX009 (ip), vehicle: saline
# [2] = endpoint: mean survival time, dose: 200.0 mg/kg/injection, schedule: Q01DX009 (ip), vehicle: saline
# [3] = endpoint: mean survival time, dose: 400.0 mg/kg/injection, schedule: Q01DX009 (ip), vehicle: saline
# [4] = endpoint: mean survival time, dose: 100.0 mg/kg/injection, schedule: Q04DX002 (ip), vehicle: saline with Tween-80
# [5] = endpoint: mean survival time, dose: 200.0 mg/kg/injection, schedule: Q04DX002 (ip), vehicle: saline with Tween-80
# [6] = endpoint: mean survival time, dose: 100.0 mg/kg/injection, schedule: Q04DX003 (ip), vehicle: saline with Tween-80
# [7] = endpoint: mean survival time, dose: 200.0 mg/kg/injection, schedule: Q04DX003 (ip), vehicle: saline with Tween-80
# [8] = endpoint: mean survival time, dose: 400.0 mg/kg/injection, schedule: Q04DX003 (ip), vehicle: saline with Tween-80
# [9] = endpoint: mean survival time, dose: 100.0 mg/kg/injection, schedule: Q01DX009 (ip), vehicle: saline with Tween-80
# [10] = endpoint: mean survival time, dose: 200.0 mg/kg/injection, schedule: Q01DX009 (ip), vehicle: saline with Tween-80
# [11] = endpoint: mean survival time, dose: 400.0 mg/kg/injection, schedule: Q01DX009 (ip), vehicle: saline with Tween-80
# [12] = endpoint: mean survival time, dose: 25.0 mg/kg/injection, schedule: Q01DX009 (ip), vehicle: saline with Tween-80
# [13] = endpoint: mean survival time, dose: 50.0 mg/kg/injection, schedule: Q01DX009 (ip), vehicle: saline with Tween-80
# [14] = endpoint: mean survival time, dose: 400.0 mg/kg/injection, schedule: Q04DX002 (ip), vehicle: saline with Tween-80
compound,measurement,setting,value
COC1=CCC2C(=O)C=CC(=O)C2C1 (stereo not given),T/C,"endpoint: mean survival time, dose: 12.5 mg/kg/injection, schedule: Q01DX005 (ip), vehicle: Klucel (hydroxypropylcellulose) (HPC)",95 % of control
same,T/C,"endpoint: mean survival time, dose: 25.0 mg/kg/injection, schedule: Q01DX005 (ip), vehicle: Klucel (hydroxypropylcellulose) (HPC)",95 % of control
same,T/C,"endpoint: mean survival time, dose: 50.0 mg/kg/injection, schedule: Q01DX005 (ip), vehicle: Klucel (hydroxypropylcellulose) (HPC)",93 % of control
same,T/C,"endpoint: mean survival time, dose: 100.0 mg/kg/injection, schedule: Q01DX005 (ip), vehicle: Klucel (hydroxypropylcellulose) (HPC)",91 % of control
same,T/C,"endpoint: mean survival time, dose: 200.0 mg/kg/injection, schedule: Q01DX005 (ip), vehicle: Klucel (hydroxypropylcellulose) (HPC)",90 % of control
O=C(/C=C/C(=O)c1ccccc1)c1ccccc1,T/C,"endpoint: mean survival time, dose: 6.25 mg/kg/injection, schedule: Q01DX001 (ip), vehicle: saline with Tween-80",92 % of control
same,T/C,"endpoint: mean survival time, dose: 12.5 mg/kg/injection, schedule: Q01DX001 (ip), vehicle: saline with Tween-80",107 % of control
same,T/C,"endpoint: mean survival time, dose: 25.0 mg/kg/injection, schedule: Q01DX001 (ip), vehicle: saline with Tween-80",96 % of control
same,T/C,"endpoint: mean survival time, dose: 50.0 mg/kg/injection, schedule: Q01DX001 (ip), vehicle: saline with Tween-80",89 % of control
same,T/C,"endpoint: mean survival time, dose: 100.0 mg/kg/injection, schedule: Q01DX001 (ip), vehicle: saline with Tween-80",94 % of control
C[N+]12CCN(CC1)CC2.[Cl][Pt]([Cl])[Cl],T/C,"endpoint: mean survival time, dose: 12.5 mg/kg/injection, schedule: Q04DX003 (ip), vehicle: saline",101 % of control
same,T/C,"endpoint: mean survival time, dose: 25.0 mg/kg/injection, schedule: Q04DX003 (ip), vehicle: saline",98 % of control
same,T/C,"endpoint: mean survival time, dose: 50.0 mg/kg/injection, schedule: Q04DX003 (ip), vehicle: saline",106 % of control
same,T/C,"endpoint: mean survival time, dose: 100.0 mg/kg/injection, schedule: Q04DX003 (ip), vehicle: saline",113 % of control
same,T/C,"endpoint: mean survival time, dose: 200.0 mg/kg/injection, schedule: Q04DX003 (ip), vehicle: saline",104 % of control
CCSC(C)C,T/C,[1],101 % of control
same,T/C,[2],96 % of control
same,T/C,[3],98 % of control
CCOC(=O)c1nc(SC)n(C)c1C(=O)OCC,T/C,[4],94 % of control
same,T/C,[5],105 % of control
O=c1nc(N2CCCCCCC2)ccn1C1OC(CO)C(O)C1O (stereo not given),T/C,"endpoint: median survival time, dose: 12.5 mg/kg/injection, schedule: Q01DX005 (ip), vehicle: water",98 % of control
same,T/C,"endpoint: median survival time, dose: 25.0 mg/kg/injection, schedule: Q01DX005 (ip), vehicle: water",98 % of control
same,T/C,"endpoint: median survival time, dose: 50.0 mg/kg/injection, schedule: Q01DX005 (ip), vehicle: water",118 % of control
same,T/C,"endpoint: median survival time, dose: 100.0 mg/kg/injection, schedule: Q01DX005 (ip), vehicle: water",112 % of control
same,T/C,"endpoint: median survival time, dose: 200.0 mg/kg/injection, schedule: Q01DX005 (ip), vehicle: water",104 % of control
ON=C(CCl)CCl,T/C,"endpoint: mean survival time, dose: 1.56 mg/kg/injection, schedule: Q01DX009 (ip), vehicle: saline",96 % of control
same,T/C,"endpoint: mean survival time, dose: 3.12 mg/kg/injection, schedule: Q01DX009 (ip), vehicle: saline",96 % of control
same,T/C,"endpoint: mean survival time, dose: 6.25 mg/kg/injection, schedule: Q01DX009 (ip), vehicle: saline",93 % of control
C[S+](C)CCC(N)C(=O)O (stereo not given),T/C,"endpoint: median survival time, dose: 3.13 mg/kg/injection, schedule: Q04DX002 (ip), vehicle: saline",105 % of control
same,T/C,"endpoint: median survival time, dose: 6.25 mg/kg/injection, schedule: Q04DX002 (ip), vehicle: saline",105 % of control
same,T/C,"endpoint: median survival time, dose: 12.5 mg/kg/injection, schedule: Q04DX002 (ip), vehicle: saline",108 % of control
same,T/C,"endpoint: median survival time, dose: 25.0 mg/kg/injection, schedule: Q04DX002 (ip), vehicle: saline",100 % of control
same,T/C,"endpoint: median survival time, dose: 50.0 mg/kg/injection, schedule: Q04DX002 (ip), vehicle: saline",117 % of control
O=C(c1ccccc1)c1cn(C2CCCCC2)c(-c2ccccc2)c1NC1CCCCC1,T/C,[6],87 % of control
same,T/C,[7],87 % of control
same,T/C,[8],94 % of control
C/C(=N\NC(=O)c1ccccc1)c1ccccc1,T/C,[9],98 % of control
same,T/C,[10],106 % of control
same,T/C,[11],102 % of control
Nc1nc(N)c2nc(CN(Cc3ccccc3)c3ccc(C(=O)NC(CCC(=O)O)C(=O)O)cc3)cnc2n1 (stereo not given),T/C,"endpoint: mean survival time, dose: 20.0 mg/kg/injection, schedule: Q01DX009 (ip), vehicle: sodium bicarbonate",109 % of control
same,T/C,"endpoint: mean survival time, dose: 40.0 mg/kg/injection, schedule: Q01DX009 (ip), vehicle: sodium bicarbonate",114 % of control
same,T/C,"endpoint: mean survival time, dose: 80.0 mg/kg/injection, schedule: Q01DX009 (ip), vehicle: sodium bicarbonate",114 % of control
same,T/C,"endpoint: mean survival time, dose: 100.0 mg/kg/injection, schedule: Q01DX001 (ip), vehicle: sodium bicarbonate",94 % of control
same,T/C,"endpoint: mean survival time, dose: 200.0 mg/kg/injection, schedule: Q01DX001 (ip), vehicle: sodium bicarbonate",91 % of control
same,T/C,"endpoint: mean survival time, dose: 400.0 mg/kg/injection, schedule: Q01DX001 (ip), vehicle: sodium bicarbonate",91 % of control
CCCCCCCCCCCCCCCC(=O)N(C(C)CCCN(CC)CC)C(C)CCCN(CC)CC (stereo not given),T/C,"endpoint: mean survival time, dose: 6.25 mg/kg/injection, schedule: Q01DX009 (ip), vehicle: Klucel (hydroxypropylcellulose) (HPC)",101 % of control
same,T/C,"endpoint: mean survival time, dose: 12.5 mg/kg/injection, schedule: Q01DX009 (ip), vehicle: Klucel (hydroxypropylcellulose) (HPC)",100 % of control
same,T/C,"endpoint: mean survival time, dose: 25.0 mg/kg/injection, schedule: Q01DX009 (ip), vehicle: Klucel (hydroxypropylcellulose) (HPC)",91 % of control
Nc1ccc(S(=O)(=O)O)cc1[N+](=O)[O-],T/C,[1],92 % of control
same,T/C,[2],97 % of control
same,T/C,[3],101 % of control
CCCCC(=O)NN,T/C,"endpoint: mean survival time, dose: 12.5 mg/kg/injection, schedule: Q01DX009 (ip), vehicle: saline with Tween-80",90 % of control
same,T/C,[12],104 % of control
same,T/C,[13],118 % of control
Cc1ccccc1C1(O)CCCCC1,T/C,[12],114 % of control
same,T/C,[13],98 % of control and 108 % of control
same,T/C,[9],90 % of control
same,T/C,[6],93 % of control
same,T/C,[10],90 % of control
same,T/C,[7],94 % of control
CN(C)N=Nc1ccc(NC=O)cc1,T/C,"endpoint: mean survival time, dose: 4.68 mg/kg/injection, schedule: Q01DX009 (ip), vehicle: Klucel (hydroxypropylcellulose) (HPC)",104 % of control
same,T/C,"endpoint: mean survival time, dose: 9.37 mg/kg/injection, schedule: Q01DX009 (ip), vehicle: Klucel (hydroxypropylcellulose) (HPC)",115 % of control and 110 % of control
Cc1ccc(/C(C#N)=C/c2ccc3c(c2)OCO3)cc1,T/C,[4],94 % of control
same,T/C,[5],97 % of control
same,T/C,[14],91 % of control
O=C(Nc1ccccc1Cl)c1ccccc1CC(O)(c1ccccc1)c1ccccc1,T/C,"endpoint: mean survival time, dose: 100.0 mg/kg/injection, schedule: Q01DX001 (ip), vehicle: saline sonified",102 % of control
same,T/C,"endpoint: mean survival time, dose: 200.0 mg/kg/injection, schedule: Q01DX001 (ip), vehicle: saline sonified",109 % of control
same,T/C,"endpoint: mean survival time, dose: 400.0 mg/kg/injection, schedule: Q01DX001 (ip), vehicle: saline sonified",86 % of control
c1nc(Sc2ncnc3nc[nH]c23)c2[nH]cnc2n1,T/C,"endpoint: mean survival time, dose: 75.0 mg/kg/injection, schedule: Q01DX009 (ip), vehicle: saline with Tween-80",123 % of control
same,T/C,"endpoint: mean survival time, dose: 300.0 mg/kg/injection, schedule: Q01DX009 (ip), vehicle: saline with Tween-80",169 % of control
CC1CC(NC(=S)NC(=O)c2ccccc2Cl)CC(C)(C)C1 (stereo not given),T/C,[9],86 % of control
same,T/C,[10],86 % of control
same,T/C,[11],86 % of control
CNNC(=O)OC,T/C,"endpoint: mean survival time, dose: 25.0 mg/kg/injection, schedule: Q04DX002 (ip), vehicle: saline",95 % of control
same,T/C,"endpoint: mean survival time, dose: 50.0 mg/kg/injection, schedule: Q04DX002 (ip), vehicle: saline",98 % of control
same,T/C,"endpoint: mean survival time, dose: 100.0 mg/kg/injection, schedule: Q04DX002 (ip), vehicle: saline",121 % of control and 109 % of control
N=Cc1c(O)n(C2CCCCC2)c(=O)[nH]c1=O,T/C,[9],98 % of control
same,T/C,[6],93 % of control
same,T/C,[10],94 % of control
same,T/C,[7],93 % of control
same,T/C,[11],98 % of control
same,T/C,[8],91 % of control
C=CCOC(=N)C(Cl)(Cl)Cl,T/C,[13],106 % of control
same,T/C,[9],95 % of control
O=C(O)C1C(=O)CC2(O)c3ccccc3-c3ccccc3C12 (stereo not given),T/C,"endpoint: mean survival time, dose: 100.0 mg/kg/injection, schedule: Q01DX001 (ip), vehicle: Klucel (hydroxypropylcellulose) (HPC)",98 % of control
same,T/C,[4],96 % of control
same,T/C,"endpoint: mean survival time, dose: 200.0 mg/kg/injection, schedule: Q01DX001 (ip), vehicle: Klucel (hydroxypropylcellulose) (HPC)",94 % of control
same,T/C,[5],93 % of control
same,T/C,"endpoint: mean survival time, dose: 400.0 mg/kg/injection, schedule: Q01DX001 (ip), vehicle: Klucel (hydroxypropylcellulose) (HPC)",94 % of control
same,T/C,[14],93 % of control
